Data as given in paper PMC10535535, “Imidazopyridine-Based Thiazole Derivatives as Potential Antidiabetic Agents: Synthesis, In Vitro Bioactivity, and In Silico Molecular Modeling Approach” (Pharmaceuticals, 2023).

The compounds below were run against α-glucosidase (assay: α-glucosidase inhibition assay (pNPG, spectrophotometric)). Conditions: in vitro, pNPG substrate, 37 °C, triplicate; read-out: IC50 ± SEM.
Assay type: biochemical
Description: With slight modification to an earlier technique, the α-glucosidase inhibition profiles of the synthesized scaffolds were assessed spectrophotometrically. Amounts of 10 μL of the sample, 120 μL of 100 mM potassium phosphate buffer, and […] of a 0.5 U/mL α-glucosidase solution (0.3 mM, in buffer) were combined for each chemical. […] Each combination was incubated at 37 °C for a separate period of 15 min. […] Once more, the mixture was incubated for 15 min at 37 °C. At that point, 80 μL of a 0.2 M sodium carbonate solution was administered to terminate the process. The mixture that included no enzymes also functioned as a blank sample. At 405 nm, the absorbance was finally calculated. To accurately measure the background absorbance, the blank sample, which replaced the substrate with 50 μL of the buffer, was examined. […] Assuming that A represents the absorbance of the control without test samples and B represents the absorbance with test samples present, the percentage of enzyme inhibition was computed as (1 B/A) 100. […] 4.4. Assay protocol for α-glucosidase inhibition The α-glucosidase inhibition profiles of synthesized scaffolds were determined spectrophotometrically, with some modifications to an earlier method. For each chemical, 10 μL of the sample, 120 μL of 100 mM potassium phosphate buffer, and 20 μL of 0.5 U/mL alpha-glucosidase solution was mixed (0.3 mM, in buffer). […] At 37 °C, each mixture was incubated for a separate 15 minutes. The enzymatic reaction was initiated by adding 20 μL of the substrate 4-nitrophenyl- D-α-glucopyranoside (pNPG) (5 mM) to the solution. The mixture was once more incubated at 37 °C for 15 minutes. To stop the process at that point, 80μL of sodium carbonate solution were injected (0.2 M). Additionally, the mixture without any enzymes served as a blank sample. The absorbance was finally determined at 405 nm. The blank sample, in which the substrate was swapped out for 50 μL of the buffer, was analyzed to properly quantify the background absorbance. […] The percentage of enzyme inhibition was calculated as (1 B/A) 100, assuming that A represents the absorbance of the control without test samples and B represents the absorbance with test samples present. The analyses were carried out in triplicate, and the results were presented as mean SD. 4.5. […] On the Discovery Studio R2 64-bit Client system, interactive molecular structure visualization and analysis were done. From the RCSB Protein Data Bank, the three-dimensional (3D) structure of α-glucosidase was retrieved (PDB). The chemical structures of the ligands were obtained from the Pub Chem compound database. Using Open Babel, the PDB files were converted into PDBQT files. For docking analysis, the PDB coordinates of the ligands and targets were optimized. Geometry optimization is carried out using Gaussian 09 (adding missing residues). […] Further details were summarized in our previous articles.

SMILES	IC50
CN(C)c1ccc(-c2csc(N/N=C\c3cnc4ccc(F)cn34)n2)cc1 [4d]	32.1 ± 4.29 µM
O=[N+]([O-])c1ccc(C(F)(F)F)c(-c2csc(N/N=C\c3cnc4ccc(F)cn34)n2)c1 [4g]	5.57 ± 3.45 µM
COc1cc(O)ccc1-c1csc(N/N=C\c2cnc3ccc(F)cn23)n1 [4i]	34.9 ± 5.84 µM
Cc1ccc(-c2csc(N/N=C\c3cnc4ccc(F)cn34)n2)c([N+](=O)[O-])c1 [4j]	22.6 ± 3.55 µM
Cc1cc(Cl)ccc1-c1csc(N/N=C\c2cnc3ccc(F)cn23)n1 [4k]	34.7 ± 5.23 µM
Fc1ccc2ncc(/C=N\Nc3nc(-c4ccc(Cl)cc4Cl)cs3)n2c1 [4l]	19.3 ± 2.58 µM
O=[N+]([O-])c1ccc(O)c(-c2csc(N/N=C\c3cnc4ccc(F)cn34)n2)c1 [4o, (Z)-2-(2-(2-((6-fluoroimidazo[1,2-a]pyridin-3-yl)methylene)hydrazineyl)thiazol-4-yl)-4-nitrophenol]	7.16 ± 1.4 µM
Oc1ccc(-c2csc(N/N=C\c3cnc4ccc(F)cn34)n2)c(O)c1 [4p]	10.5 ± 2.2 µM

Continued, values first:

IC50	SMILES
6.85 ± 2.18 µM	O=[N+]([O-])c1cc(-c2csc(N/N=C\c3cnc4ccc(F)cn34)n2)cc(C(F)(F)F)c1 [4a]
13.6 ± 1.67 µM	O=[N+]([O-])c1cc(Cl)ccc1-c1csc(N/N=C\c2cnc3ccc(F)cn23)n1 [4b]
63.5 ± 5.28 µM	Fc1ccc2ncc(/C=N\Nc3nc(-c4ccc(-c5ccccc5)cc4)cs3)n2c1 [4c]
44.9 ± 5.27 µM	COc1cc(C)ccc1-c1csc(N/N=C\c2cnc3ccc(F)cn23)n1 [4e]
51 ± 5.8 µM	Cc1ccc(-c2csc(N/N=C\c3cnc4ccc(F)cn34)n2)c(C)c1 [4f]
43.2 ± 6.16 µM	Cc1ccccc1-c1csc(N/N=C\c2cnc3ccc(F)cn23)n1 [4h]
56.3 ± 5.94 µM	COc1ccc(-c2csc(N/N=C\c3cnc4ccc(F)cn34)n2)c(OC)c1 [4m]
61.4 ± 4.56 µM	Cc1ccc(-c2ccc(-c3csc(N/N=C\c4cnc5ccc(F)cn45)n3)cc2)cc1 [4n]

Same assay, conditions: unit not given; in µM

IC50	SMILES
34.91 ± 5.84	COc1cc(O)ccc1-c1csc(N/N=C\c2cnc3ccc(F)cn23)n1 [4i]

Same assay, conditions: versus acarbose

potency as compared to the standard drug	SMILES
two-fold more potency	Cc1ccc(-c2csc(N/N=C\c3cnc4ccc(F)cn34)n2)c([N+](=O)[O-])c1 [4j]
two-fold more potency	Fc1ccc2ncc(/C=N\Nc3nc(-c4ccc(Cl)cc4Cl)cs3)n2c1 [4l]
